# Data: patent publication US8178534B2, “cMET inhibitors” (Takeda Pharmaceutical Company Limited, priority 2008, dated 2012)
# pEC50, pIC50: −log10 of the molar value. Where a name gives a salt, the structure may show the parent alone.
# How the values were obtained:
# EBC1 = assay: Inhibition of cell viability (MTS), EBC1; type: cell-based; settings: 96 hours incubation
# Procedure: (§1) Cells were maintained at 37° C. in a humidified atmosphere containing 5%-8% CO2 following the instructions of the supplier (American Type Culture Collection (Rockville, Md.)). Inhibition of cell viability was determined for a panel of tumor cell lines (MKN45, EBC1 and A549), using the soluble tetrazolium salt, MTS (Promega, Madison, Wis.). Cells were seeded at 2,000-7,500 cells/well in 96-well tissue culture plates and were allowed to attach for approximately 24 hours prior to addition of compounds or DMSO vehicle. […] Cells were treated in duplicate with test compounds. Compounds were serially diluted (1:2.5) from column 1 to 11 and column 12 contained DMSO vehicle. Compounds were diluted into cell growth medium then compound solution was added to cells. Equal amounts of DMSO were added to cells (final concentration is 0.5%). After background correction and normalization against DMSO-treated cells, EC50 values were calculated using non-linear curve-fitting of the cell viability as a function of compound concentration. The MKN45 and EBC1 cell lines contain high levels of phospho-Met and are dependent on cMET for proliferation, whereas the A549 line is used as negative control.
# (§2) EC50 values may be calculated by non-linear curve fitting of the compound concentrations and fluorescence intensities to the standard EC50 equation.
# [1] = target: T1, cMET enzyme (amino acids 1023-1360) (Homo sapiens, UniProt P08581); assay: Determination of inhibition of cMET (capillary electrophoresis, phosphorylated peptide product); type: biochemical; settings: 1.2 nM cMET, 50 μM ATP, 2 μM FL-2 peptide, 2 hours room temperature
# T1 construct: The cMET enzyme (amino acids 1023-1360) nominally at 24 μM was held at −80° C. until use; His tag (N, cleaved yes); made in house; host or cells: Sf9 cells
# T1 sequence (P08581 1023-1360): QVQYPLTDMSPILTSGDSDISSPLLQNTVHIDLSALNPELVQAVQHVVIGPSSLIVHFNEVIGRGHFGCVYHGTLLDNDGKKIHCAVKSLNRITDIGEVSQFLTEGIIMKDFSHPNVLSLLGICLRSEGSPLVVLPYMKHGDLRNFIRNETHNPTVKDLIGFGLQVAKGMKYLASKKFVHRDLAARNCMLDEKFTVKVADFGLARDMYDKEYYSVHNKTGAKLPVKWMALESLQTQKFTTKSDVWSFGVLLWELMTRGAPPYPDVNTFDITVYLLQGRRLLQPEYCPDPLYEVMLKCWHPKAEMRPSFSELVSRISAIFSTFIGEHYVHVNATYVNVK
# Procedure: The inhibitory property of a compound relative to cMET catalysis was determined by use of capillary electrophoresis with fluorescence quantification of a phosphorylated peptide product for cMET. The cMET enzyme (amino acids 1023-1360) nominally at 24 μM was held at −80° C. until use, in a buffer containing 25 mM Tris-HCl pH 8.5, 150 mM NaCl, 3 mM DTT and 10% glycerol. […] Following purification, the tag was removed and enzyme concentrated. […] To activate the enzyme fully, frozen cMET was thawed quickly and activated with the addition of assay buffer (50 mM HEPES pH 7.5, 10 mM NaCl, 10 mM MgCl2, 0.01% Brij® 35), 1.25 mM ATP, 5 mM MgCl2 and 5 mM DTT at a cMET concentration of 2.4 μM followed by a 30 minute incubation at room temperature. […] Next, cMET enzyme (1.2 nM final) was added and the system incubated at room temperature for 20 minutes. Catalysis was initiated by the addition of ATP (50 μM final). Assays were incubated at room temperature for 2 hours then quenched by the addition of EDTA. Phosphorylated peptide product was quantified by monitoring fluorescence during capillary electrophoresis with Caliper LifeSciences LabChip 3000 under the following settings: base pressure=−0.1 psi, screen pressure=−1.2 psi, downstream voltage=−500 V, upstream voltage=−2300 V, chip type=TC372. The elution buffer was identical to the assay buffer except for the absence of DTT, FL-2 and ATP and the addition of 0.1% coating reagent (Caliper). […] Peak height was quantified and used to determine enzyme velocities.
# IC50 values were calculated by non-linear least squares curve fitting of the standard IC50 equation to background-corrected cMET velocity versus compound concentration.
# MKN45 = assay: Inhibition of cell viability (MTS), MKN45; type: cell-based; settings: 96 hours incubation
# Procedure: as §1, §2
# A549 = assay: Inhibition of cell viability (MTS), A549 (negative control line); type: cell-based; settings: A549 cells (negative control), 96 hours incubation
# Procedure: as §1, §2
# [2] = Homo sapiens, EBC-1, 96 h, EBC1 cells
# [3] = Homo sapiens, MKN-45, 96 h, MKN45 cells
Structure (SMILES),pIC50 [1],pEC50 (MKN45; [3]),"pEC50 (A549; Homo sapiens, A549, 96 h)",pEC50 (MKN45; MKN45 cells),pEC50 (A549),pEC50 (EBC1; [2]),"pEC50 (EBC1; Homo sapiens, EBC-1, EBC1 cells)","pEC50 (MKN45; Homo sapiens, MKN-45, MKN45 cells)",pEC50 (A549; Homo sapiens),pEC50 (EBC1; EBC1 cells)
"COc1cccc(-c2ccc3nnc(Sc4ccc5nc(NC(=O)C6CC6)cn5n4)n3c2)n1 [Compound 101, N-(6-(6-(6-methoxypyridin-2-yl)-[1,2,4]triazolo[4,3-a]pyridin-3-ylthio)imidazo[1,2-b]pyridazin-2-yl)cyclopropanecarboxamide]",> 7.52,6.60 to 7.00,< 4.30,–,–,7.23 to 7.52,–,–,–,–
"O=C(NCCO)Nc1cn2nc(Sc3nnc4ccc(-c5cccc(F)c5)cn34)ccc2n1 [Compound 27, 1-(6-(6-(3-fluorophenyl)-[1,2,4]triazolo[4,3-a]pyridin-3-ylthio)imidazo[1,2-b]pyridazin-2-yl)-3-(2-hydroxyethyl)urea]",> 7.52,–,–,–,–,–,7.00 to 7.46,> 7.00,< 4.30,–
"CC(C)c1ccc2nnc(Sc3ccc4nc(NC(=O)C5CC5)cn4n3)n2c1 [Compound 26, N-(6-(6-isopropyl-[1,2,4]triazolo[4,3-a]pyridin-3-ylthio)imidazo[1,2-b]pyridazin-2-yl)cyclopropanecarboxamide]",> 7.52,> 7.00,< 4.71,–,–,> 7.46,–,–,–,–
"CNC(=O)c1ccc(-c2ccc3nnc(C(F)(F)c4ccc5nc(NC(=O)C6CC6)cn5n4)n3c2)cc1F [Compound 98, 4-(3-((2-(cyclopropanecarboxamido)imidazo[1,2-b]pyridazin-6-yl)difluoromethyl)-[1,2,4]triazolo[4,3-a]pyridin-6-yl)-2-fluoro-N-methylbenzamide]",> 7.52,> 7.52,< 4.30,–,–,> 7.52,–,–,–,–
"O=C(Nc1cn2nc(C(F)(F)c3nnc4ccc(-c5ccc(F)cc5)cn34)ccc2n1)C1CC1 [Compound 74, N-(6-(difluoro(6-(4-fluorophenyl)-[1,2,4]triazolo[4,3-a]pyridin-3-yl)methyl)imidazo[1,2-b]pyridazin-2-yl)cyclopropanecarboxamide]",> 7.52,> 7.52,4.60 to 5.10,–,–,> 7.52,–,–,–,–
O=C(Nc1cn2nc(Cn3nnc4ccc(-c5ccccc5)cc43)ccc2n1)C1CC1 [Compound 15],7.00 to 7.22,6.20 to 6.60,4.60 to 5.10,–,–,6.70 to 7.00,–,–,–,–
"O=C(Nc1cn2nc(Sc3nnc4ccc(C(F)(F)F)cn34)ccc2n1)C1CC1 [Compound 41, N-(6-(6-(trifluoromethyl)-[1,2,4]triazolo[4,3-a]pyridin-3-ylthio)imidazo[1,2-b]pyridazin-2-yl)cyclopropanecarboxamide]",7.00 to 7.22,6.60 to 7.00,4.60 to 5.10,–,–,7.00 to 7.46,–,–,–,–
"CC(c1ccc2nc(NC(=O)C3CC3)cn2n1)c1nnc2ccc(-c3cn[nH]c3)cn12 (centres unmarked) [Compound 64, N-(6-(1-(6-(1H-pyrazol-4-yl)-[1,2,4]triazolo[4,3-a]pyridin-3-yl)ethyl)imidazo[1,2-b]pyridazin-2-yl)cyclopropanecarboxamide]",> 7.52,6.60 to 7.00,< 4.30,–,–,6.60 to 7.00,–,–,–,–
"O=C(NC1CC1)c1ccc2nnc(Sc3ccc4nc(NC(=O)C5CC5)cn4n3)n2c1 [Compound 34, 3-(2-(cyclopropanecarboxamido)imidazo[1,2-b]pyridazin-6-ylthio)-N-cyclopropyl-[1,2,4]triazolo[4,3-a]pyridine-6-carboxamide]",7.00 to 7.22,< 6.20,< 4.30,–,–,< 6.70,–,–,–,–
O=C(Nc1cn2nc(Cn3nnc4ccc(-c5cccnc5)cc43)ccc2n1)C1CC1 [Compound 16],< 7.00,< 6.20,< 4.30,–,–,< 6.70,–,–,–,–

# The next lines start with results.
pIC50 [1],pEC50 (MKN45; [3]),"pEC50 (A549; Homo sapiens, A549, 96 h)",pEC50 (MKN45; MKN45 cells),pEC50 (A549),Structure (SMILES),pEC50 (EBC1; [2]),"pEC50 (EBC1; Homo sapiens, EBC-1, EBC1 cells)","pEC50 (MKN45; Homo sapiens, MKN-45, MKN45 cells)",pEC50 (A549; Homo sapiens),pEC50 (EBC1; EBC1 cells)
> 7.52,> 7.52,< 4.30,–,–,"CNC(=O)c1ccc(-c2ccc3nnc(C(C)c4ccc5nc(NC(=O)C6CC6)cn5n4)n3c2)cc1F (centres unmarked) [Compound 58, 4-(3-(1-(2-(cyclopropanecarboxamido)imidazo[1,2-b]pyridazin-6-yl)ethyl)-[1,2,4]triazolo[4,3-a]pyridin-6-yl)-2-fluoro-N-methylbenzamide]",> 7.52,–,–,–,–
7.00 to 7.22,6.20 to 6.60,< 4.30,–,–,Cc1n[nH]c(C)c1-c1ccc2nnn(Cc3ccc4nc(NC(=O)C5CC5)cn4n3)c2c1 [Compound 20],< 6.70,–,–,–,–
7.00 to 7.22,< 6.20,< 4.30,–,–,O=C(Nc1cn2nc(Cn3nnc4ccc(-c5cnn(C[C@H](O)CO)c5)cc43)ccc2n1)C1CC1 [Compound 22],< 6.70,–,–,–,–
> 7.52,> 7.00,< 4.30,–,–,"CNC(=O)c1ccc(-c2ccc3nnc(Sc4ccc5nc(NC(=O)C6CC6)cn5n4)n3c2)cc1Cl [Compound 28, 2-chloro-4-(3-(2-(cyclopropanecarboxamido)imidazo[1,2-b]pyridazin-6-ylthio)-[1,2,4]triazolo[4,3-a]pyridin-6-yl)-N-methylbenzamide]",> 7.46,–,–,–,–
> 7.52,7.23 to 7.52,< 4.30,–,–,"O=C(Nc1cn2nc(Sc3nnc4ccc(-c5ccc(N6CCOCC6)nc5)cn34)ccc2n1)C1CC1 [Compound 103, N-(6-(6-(6-morpholinopyridin-3-yl)-[1,2,4]triazolo[4,3-a]pyridin-3-ylthio)imidazo[1,2-b]pyridazin-2-yl)cyclopropanecarboxamide]",> 7.52,–,–,–,–
> 7.52,> 7.52,< 4.30,–,–,"O=C(Nc1cn2nc(C(F)(F)c3nnc4ccc(-c5cc(F)cc(F)c5)cn34)ccc2n1)C1CC1 [Compound 81, N-(6-((6-(3,5-difluorophenyl)-[1,2,4]triazolo[4,3-a]pyridin-3-yl)difluoromethyl)imidazo[1,2-b]pyridazin-2-yl)cyclopropanecarboxamide]",> 7.52,–,–,–,–
> 7.52,> 7.52,< 4.30,–,–,"COCCOc1ccc(-c2ccc3nnc(C(F)(F)c4ccc5nc(NC(=O)C6CC6)cn5n4)n3c2)cc1 [Compound 91, N-(6-(difluoro(6-(4-(2-methoxyethoxy)phenyl)-[1,2,4]triazolo[4,3-a]pyridin-3-yl)methyl)imidazo[1,2-b]pyridazin-2-yl)cyclopropanecarboxamide]",> 7.52,–,–,–,–
> 7.52,6.60 to 7.00,4.60 to 5.10,–,–,"O=C(Nc1cn2nc(Sc3nnc4ccc(-c5cccc(CCCO)c5)cn34)ccc2n1)C1CC1 [Compound 111, N-(6-(6-(3-(3-hydroxypropyl)phenyl)-[1,2,4]triazolo[4,3-a]pyridin-3-ylthio)imidazo[1,2-b]pyridazin-2-yl)cyclopropanecarboxamide]",7.23 to 7.52,–,–,–,–
7.23 to 7.52,–,–,7.00 to 7.22,5.10 to 5.30,"Cn1cc(-c2ccc3nnn(Cc4ccc5nc(NC(=O)C6CC6)cn5n4)c3c2)cn1 [13 (TFA Salt), Cyclopropanecarboxylic acid {6-[6-(1-methyl-1H-pyrazol-4-yl)-benzotriazol-1-ylmethyl]-imidazo[1,2-b]pyridazin-2-yl}-amide]",–,–,–,–,> 7.52
6.20 to 6.60,4.60 to 5.10,4.60 to 5.10,–,–,"O=C(Nc1cn2nc(Sc3nnc4ccc(-c5cnc(NCCCO)nc5)cn34)ccc2n1)C1CC1 [Compound 109, N-(6-(6-(2-(3-hydroxypropylamino)pyrimidin-5-yl)-[1,2,4]triazolo[4,3-a]pyridin-3-ylthio)imidazo[1,2-b]pyridazin-2-yl)cyclopropanecarboxamide]",4.60 to 5.10,–,–,–,–
